Patent publication US7700741B2, “High affinity anti-N1,N12-diacetylspermine monoclonal antibody” (Trans Genic Inc., priority 2005, dated 2010)

What was measured:
[1] = biological target: anti-DiAcSpm monoclonal antibody; assay: Kit competitive ELISA with solid-phased AcSpm-HMC-peptide, crossreactivities of structure analogs; format: binding, mouse; conditions: for KiDiAcSpm/Ki"S" (%) . . . (1): 15 ng/ml antibody, 0.07 μg/ml solid-phased antigen; for Crossreactivity (1) × (2) (%): crossreactivity in urine, Ki ratio × urinary ratio
Procedure: As a measuring kit, competitive ELISA using a solid-phased antigen AcSpm-HMC-peptide was performed based on known methods (Hiramatsu, K. et al., J. Biochem., 124, 231-236 (1998)). As the primary antibody, the monoclonal antibody prepared in Example 1 was used. As the secondary antibody, a commercial, goat-derived HRP-labeled anti-mouse IgG antibody (KPL) was used. The concentration of the solid-phased antigen was set at 0.07 μg/ml based on the concentration employed in a kit using anti-DiAcSpm polyclonal antibody. With respect to the concentration of anti-DiAcSpm monoclonal antibody to be used, 15 ng/ml was selected so that 40% of the maximum reaction efficiency (the point at which the absorbance at 492 nm becomes 1) is achieved when the concentration of the solid-phased antigen AcSpm-HMC-peptide is 0.07 μg/ml (FIG. 4). The dilution ratio of the goat-derived HRP-labeled anti-mouse IgG antibody was set at 2,500-fold from experience.
First, under the conditions established in (1) above, crossreactivities of structure analogs of DiAcSpm with DiAcSpm in urine samples were examined. Briefly, the 50% inhibition activity concentrations of DiAcSpm, N^1-AcSpm, DiAcSpd, N^1-AcSpd, N^8-AcSpd and DiAcPut in the kit were examined, and the crossreactivities of other structure analogs with DiAcSpm in urine were calculated. As a result, crossreactivity with N^1-AcSpd (whose crossreactivity is most apprehended) was 1.62%; crossreactivity with AcSpm was 0.54%; crossreactivity with DiAcSpd was 0.002%; crossreactivity with N^8-AcSpd was 0.01%; crossreactivity with AcPut was 0.01%; and the total crossreactivity was 2.17% (Table 2).

[2] = system: anti-DiAcSpm monoclonal antibody CN647; assay: Crossreactivity test on cloned wells (culture supernatant of CN647 strain); format: binding, mouse; conditions: all three cloned wells, one designated CN647; FIG. 3
Procedure: Briefly, cells were diluted with 20% FCS-containing RPMI medium to a density of 2.5 cells/ml and added to two 96-well culture plates at 200 μl/well. After five days, single colonies were examined. As a result, a single colony was confirmed in 17 wells out of the two 96-well plates. After 10 days, antibody titers to DiAcSpm were measured in culture supernatants by the method described in Experimental Example 2. Three wells were positive. Cells in these three wells were cultured further and tested for crossreactivities with AcSpm, N^1-AcSpd, N^8-AcSpd, DiAcSpd and AcPut by the method described in Experimental Example 3. […] Thus, antibodies sufficient to achieve the object have been obtained (FIG. 3). One of them was designated “established clone CN647”.
Antibody titers in diluted culture supernatants were measured by the method described in Experimental Example 2. Based on the results, the dilution rate with which the absorbance at 492 nm becomes 1 was selected. To each well of dilution plates, 70 μl of culture supernatant diluted at the dilution rate selected above and 70 μl of DiAcSpm solution with serially varied concentration or a structure analog of DiAcSpm (N^1-AcSpm, N^1-AcSpd, DiAcSpd, or the like) with serially varied concentration were mixed and added, and then left at 25° C. for 1 hour for pre-reaction. Subsequently, to each well of freeze-dried plates prepared in the same manner as in Experimental Example 1, 300 μl of BST was added, left at 25° C. for 30 minutes and re-washed with BST once. To the resultant plates, the pre-reacted reaction solution was added at 50 μl/well and left at 25° C. for 1 hour. Then, after washing with PBST three times, 50 μl of 80-fold dilution of HRP-labeled anti-mouse IgG antibody (KPL) was added to each well and left at 25° C. for 1 hour. […] Then, absorbances at 492 nm were measured with an ELISA reader.

[3] = system: monoclonal antibodies to DiAcSpm (Fujiwara et al., Japanese Unexamined Patent Publication No. H11-75839); conditions: prior-art monoclonal antibodies; cited from earlier work
[4] = system: monoclonal antibodies to DiAcSpm (Fujiwara et al., Japanese Unexamined Patent Publication No. H11-75839); assay: Prior-art 50% binding inhibition of immunoreaction (Fujiwara et al. antibodies); conditions: crossreactivity with DiAcSpm taken as 100; N^1-AcSpd about 25 times DiAcSpm in urine
From the text: Recently, Fujiwara et al. prepared monoclonal antibodies to DiAcSpm (Japanese Unexamined Patent Publication No. H11-75839). With these antibodies, 50% binding inhibition activity against immunoreaction with DiAcSpm is only about 100 times as much as 50% binding inhibition activity against immunoreaction with N^1-acetylspermidine (hereinafter expressed as “N^1-AcSpd”) and is only about 20 times as much as 50% binding inhibition activity against immunoreaction with N^1-acetylspermine (hereinafter expressed as “N^1-AcSpm”) which is a monoacetylated form of spermine. Since the amount of N^1-AcSpd in the urine of healthy persons is about 25 times as much as the amount of DiAcSpm therein, the crossreactivity of the above antibody with N^1-AcSpd in the urine of healthy persons is 25 when the crossreactivity of the antibody with DiAcSpm therein is taken as 100. Therefore, the antibody may yield false-positive results. Accordingly, in order to enhance the measuring sensitivity for DiAcSpm, a DiAcSpm-specific monoclonal antibody whose crossreactivities with N^1-AcSpd and N^8-acetylspermidine (hereinafter expressed as “N^8-AcSpd”) are still lower is required.

[5] = system: anti-DiAcSpm antibodies in culture supernatants of DiAcSpm positive clones; assay: Crossreactivity test on antibody production positive clones (culture supernatant, competitive ELISA); format: binding, mouse
From the text: Out the DiAcSpm positive clones obtained above, 51 clones with relatively high antibody titers were selected and tested for crossreactivity with N^1-AcSpd (which is present in urine abundantly and believed to cross-react relatively easy from the results of researches made so far) by the method described later in Experimental Example 3. As a result, with respect to two wells, the 50% reaction inhibition activity of N^1-AcSpd was about 800 times as much as that of DiAcSpm; with respect to one well, the 50% reaction inhibition activity of N^1-AcSpd was 3,000 times as much as that of DiAcSpm; and with respect to the other wells, the 50% reaction inhibition activity of N^1-AcSpd was 0-200 times as much as that of DiAcSpm.
Antibody titers in diluted culture supernatants were measured by the method described in Experimental Example 2. Based on the results, the dilution rate with which the absorbance at 492 nm becomes 1 was selected. To each well of dilution plates, 70 μl of culture supernatant diluted at the dilution rate selected above and 70 μl of DiAcSpm solution with serially varied concentration or a structure analog of DiAcSpm (N^1-AcSpm, N^1-AcSpd, DiAcSpd, or the like) with serially varied concentration were mixed and added, and then left at 25° C. for 1 hour for pre-reaction. Subsequently, to each well of freeze-dried plates prepared in the same manner as in Experimental Example 1, 300 μl of BST was added, left at 25° C. for 30 minutes and re-washed with BST once. To the resultant plates, the pre-reacted reaction solution was added at 50 μl/well and left at 25° C. for 1 hour. Then, after washing with PBST three times, 50 μl of 80-fold dilution of HRP-labeled anti-mouse IgG antibody (KPL) was added to each well and left at 25° C. for 1 hour. Subsequently, after washing with PBST three times, 100 μl of o-phenylenediamine solution diluted with 0.012% hydrogen peroxide-containing 0.1 M citrate phosphate buffer (pH 5.0) to 0.5 mg/ml was added to each well and left at 25° C. for 9 minutes. Then, absorbances at 492 nm were measured with an ELISA reader.

[6] = system: anti-DiAcSpm polyclonal antibody; assay: Evaluation of immunizing antigen lots (inhibition of polyclonal antibody reaction with solid-phased antigen); format: binding, rabbit; conditions: six lots compared; absorbance at 492 nm; FIG. 1
Procedure: The antigen was evaluated using DiAcSpm specific polyclonal antibody. Six lots of the antigen prepared in (1) above were examined on their activities to inhibit the reaction of anti-DiAcSpm polyclonal antibody with solid-phased AcSpm-HMC-AcSpm, by the method described later in Experimental Example 1.
AcSpm-HMC-peptide diluted with PBS (pH 7.0) to 0.07 μg/ml was added to 96-well microtiter plates at 50 μl/well as an antigen to be solid-phased, and left at 25° C. for 1.5 hours. Subsequently, the plates were washed with 0.05% Tween20-containing PBS (pH 7.0) (PBST) three times. Then, 0.5% gelatin-containing PBST (blocking solution) was added thereto at 200 μl/well and left at 25° C. for 1 hour. The plates were frozen at −30° C. overnight to freeze the blocking solution for freeze-drying to thereby prepare freeze-dried plates. To each well of dilution plates, 70 μl of 10 μg/ml anti-DiAcSpm polyclonal antibody and 70 μl of each lot of the immunizing antigen AcSpm-GMB-AMS-BSA with serially varied concentration were mixed and added, and left at 25° C. for 1 hour for pre-reaction. Subsequently, to each well of the freeze-dried plates prepared in Experimental Example 1, 300 μl of PBST was added, left at 25° C. for 30 minutes and then re-washed with PBST once. To each well of these plates, 50 μl of the pre-reacted reaction solution was added and left at 25° C. for 1 hour. Then, after washing with PBST three times, 50 μl of 80-fold dilution of HRP-labeled anti-rabbit IgG antibody (Bio-Rad) was added to each well and left at 25° C. for 1 hour. Subsequently, after washing with PBST three times, 100 μl of o-phenylenediamine solution diluted with 0.012% hydrogen peroxide-containing 0.1 M citrate phosphate buffer (pH 5.0) to 0.5 mg/ml was added to each well and left at 25° C. for 9 minutes. Then, absorbances at 492 nm were measured with an ELISA reader.

| Molecule | KiDiAcSpm/Ki"S" (%) . . . (1) [1] [%] | Crossreactivity (1) × (2) (%) [1] [%] | 50% inhibition activity of DiAcSpm relative to that of the analog [2] | activity to inhibit the reaction of anti-DiAcSpm polyclonal antibody with solid-phased antigen [6] | further results |
| --- | --- | --- | --- | --- | --- |
| CC(=O)NCCCCN [AcPut] | 0.0001 | 0.01 | – | – | – |
| CC(=O)NCCCNCCCCNCCCN [AcSpm, N^1-acetylspermine] | 1.7072 | 0.54 | about 70 times | – | 50% binding inhibition activity against immunoreaction with DiAcSpm relative to that with the analog [3]: about 20 times |
| CC(=O)NCCCCNCCCNC(C)=O [DiAcSpd, N^1,N^8-diacetylspermidine] | 0.0008 | 0.002 | – | – | – |
| AcSpm-GMB-AMS-BSA [lot No. 1] | – | – | – | highest inhibition activity | – |
| AcSpm-GMB-AMS-BSA [lot No. 5] | – | – | – | comes next | – |
| AcSpm-GMB-AMS-BSA [lot No. 6] | – | – | – | highest inhibition activity | – |

Further lines, with some results ahead:

| KiDiAcSpm/Ki"S" (%) . . . (1) [1] [%] | Molecule | Crossreactivity (1) × (2) (%) [1] [%] | 50% inhibition activity of DiAcSpm relative to that of the analog [2] | activity to inhibit the reaction of anti-DiAcSpm polyclonal antibody with solid-phased antigen [6] | further results |
| --- | --- | --- | --- | --- | --- |
| 100 | CC(=O)NCCCNCCCCNCCCNC(C)=O [DiAcSpm, N^1,N^12-diacetylspermine] | 100 | about 100,000 times | – | – |
| 0.0610 | CC(=O)NCCCNCCCCN [N1-AcSpd, N^1-acetylspermidine] | 1.62 | about 1,000 times | – | crossreactivity of the antibody with the analog in the urine of healthy persons [4]: 25; 50% binding inhibition activity against immunoreaction with DiAcSpm relative to that with the analog [3]: about 100 times; 50% reaction inhibition activity of N^1-AcSpd relative to that of DiAcSpm ([5]; one well of 51 selected clones): 3,000 times; 50% reaction inhibition activity of N^1-AcSpd relative to that of DiAcSpm ([5]; the other wells of 51 selected clones): 0-200 times; 50% reaction inhibition activity of N^1-AcSpd relative to that of DiAcSpm ([5]; two wells of 51 selected clones): about 800 times |
| 0.0003 | CC(=O)NCCCCNCCCN [N8-AcSpd, N^8-acetylspermidine] | 0.01 | – | – | – |
